Reference: ChEMBL document CHEMBL1201862, “PubChem BioAssay data set” (2004)
Values belong to the compound of their own block, whether it stands above or below them. The source made the active and inactive calls.

How the values were obtained:
[1] = P. falciparum Dd2 growth inhibitors, dose response, SYBR Green, cherry-picked samples (AID 1159567); type: functional, cell-based
[2] = Dd2 malaria parasite growth inhibition potency – SYBR Green, dry powder samples, dose response (AID 1159566); type: functional, cell-based;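 note: potency for growth inhibition with lower SYBR green DNA signal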
[3] = toxicity to human hepatoma HepG2 cells – cell-based, cherry-picked samples, cytotoxicity control, dose response (AID 1159577); type: functional
[4] = growth inhibition of PfATP4-mutant resistant parasites – NITD609-resistant line, SYBR Green, dry powder, dose response (AID 1159571); type: functional, cell-based;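 note: parasites synchronized at ring stage by sorbitol before testing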
[5] = growth inhibition of yeast DHODH-expressing 3D7 parasites – SYBR Green, dry powder samples, dose response (AID 1159570); type: functional, cell-based;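 note: parasite growth measured after 72 hours of compound exposure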
[6] = toxicity to human HepG2 hepatoma cells – cell-based, plate reader, dry powder samples, cytotoxicity control, dose response (AID 1159569); type: functional;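 note: inhibitor potency with signal falling toward the positive control level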
[7] = IGROV1 cell killing – plate reader, dry powder samples, PAX8 inhibitor project, dose response (AID 743043); type: functional, cell-based; conditions: IGROV-1
[8] = PAX8-dependent cell viability loss – plate reader, dry powder, dose response (AID 743049); type: functional, cell-based
[9] = viability loss of HMLE_sh_eGFP cells – cell-based, luminescence, counter-screen for HMLE_sh_ECad selective toxicity project, dose response (AID 463074); type: functional, Homo sapiens;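 note: HMLE human mammary epithelial cells expressing control shRNA against eGFP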
[10] = toxicity toward immortalized ovarian surface epithelium – cell-based, plate reader, dry powder samples, cytotoxicity control for PAX8 inhibitor project, dose response (AID 743045); type: functional
[11] = PAX5 cellular inhibition readout – cell-based, plate reader, dry powder samples, selectivity assay for PAX8 inhibitor project, dose response (AID 743047); type: functional;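 note: HEK293 cells carrying a Pax5 driven CD19 promoter luciferase reporter; potency of inhibitors that lower reporter luminescence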
[12] = DRD fibroblast viability loss – cell-based, non-viral oncogenic, luminescence, dose response (AID 1934); type: functional; conditions: Homo sapiens
[13] = A2780 cell killing – plate reader, dry powder samples, cytotoxicity control, dose response (AID 743046); type: functional, cell-based
[14] = HEK-293T viability loss after treatment – luminescence, T-cell screen hits, cytotoxicity control for TCR NF-kB inhibitor project, dose response (AID 489026); type: functional, cell-based;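 note: cells exposed to compound about 14 hours before the viability readout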
[15] = Luminescence Cell-Based Dose Retest to Confirm Inhibitors of Cancer Stem Cells. [Related pubchem assays (depositor defined):AID2717, AID2721]; type: functional; conditions: Homo sapiens
[16] = inhibitors acting on PAX2 in cells – cell-based, plate reader, dry powder samples, selectivity assay for PAX8 inhibitor project, dose response (AID 743048); type: functional;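 note: HEK293 cells carrying a WT1 promoter luciferase reporter driven by expressed Pax2; potency is for inhibition of Pax2 driven reporter signal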
[17] = OVCAR4 cell viability loss – plate reader, dry powder, SA11, cytotoxicity control for PAX8 inhibitor project, dose response (AID 743150); type: functional, cell-based; conditions: OVCAR-4
Paired box protein Pax-8 = Paired box protein Pax-8 (Homo sapiens, UniProt Q06710); experiment: PAX8 transcriptional activity inhibition in RMG-I – RMG-I cells, luciferase, cherry-pick, dose response (AID 687027); type: functional, cell-based;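 note: luciferase reporter driven by Pax8 target thyroperoxidase promoter measured by SteadyGlo luminescence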
[18] = COV434 cell viability loss – plate reader, dry powder, SA7, cytotoxicity control for PAX8 inhibitor project, dose response (AID 743145); type: functional, cell-based
[19] = target: T1, Nuclear receptor subfamily 0 group B member 1 (Homo sapiens, UniProt P51843); type: functional, cell-based;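 note: HEK293T cells transfected with SF-1 and DAX-1 plus StAR promoter luciferase reporter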
T1 sequence (P51843 whole entry): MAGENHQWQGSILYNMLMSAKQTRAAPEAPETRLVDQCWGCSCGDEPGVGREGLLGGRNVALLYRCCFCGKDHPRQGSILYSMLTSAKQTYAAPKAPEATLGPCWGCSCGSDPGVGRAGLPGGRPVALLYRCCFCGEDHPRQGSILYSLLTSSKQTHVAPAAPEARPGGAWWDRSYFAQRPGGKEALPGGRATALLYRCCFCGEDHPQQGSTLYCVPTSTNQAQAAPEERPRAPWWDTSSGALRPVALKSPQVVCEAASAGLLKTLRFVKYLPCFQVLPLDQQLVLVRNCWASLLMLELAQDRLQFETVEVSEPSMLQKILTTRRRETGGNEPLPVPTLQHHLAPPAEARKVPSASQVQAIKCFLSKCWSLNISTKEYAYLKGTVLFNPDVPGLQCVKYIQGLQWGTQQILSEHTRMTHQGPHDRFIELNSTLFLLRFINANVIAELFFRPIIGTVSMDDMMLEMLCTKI

cells = type: functional, cell-based
[20] = COV362 cell viability loss – plate reader, dry powder, SA12, cytotoxicity control for PAX8 inhibitor project, dose response (AID 743144); type: functional, cell-based
BJ = experiment: cells; type: functional, cell-based; conditions: Homo sapiens
[21] = OV-90 cell viability loss – plate reader, dry powder, SA8, PAX8 inhibitor project, dose response (AID 743149); type: functional, cell-based
[22] = OVCAR-3 cell viability loss – plate reader, dry powder samples, PAX8 inhibitor project, dose response (AID 743044); type: functional, cell-based
[23] = cervical cancer cell viability loss – HeLa, 24 h, plate reader, powder samples, set 3, cytotoxicity control, dose response (AID 651864); type: functional, cell-based
[24] = HepG2 hepatoma cell viability loss – plate reader, dry powder, cytotoxicity control, dose response (AID 651947); type: functional, cell-based
Fibrinogen beta chain [25] = target: T2, Fibrinogen beta chain (Homo sapiens, UniProt P02675); experiment: Fluorescence polarization-based biochemical high throughput dose response assay to identify inhibitors that disrupt the binding of a cyclic peptide (Tn7) to the fibrin proteolytic product D-Dimer and fragment E complex [DD(E )].
Fibrinogen beta chain [26] = target: T2, Fibrinogen beta chain; experiment: Fluorescence polarization-based biochemical high throughput dose response assay to identify inhibitors that disrupt the binding of a cyclic peptide (Tn6) to the fibrin proteolytic product D-Dimer and fragment E complex [DD(E )].
[27] = target: T3, Methionyl-tRNA synthetase, putative (Trypanosoma brucei brucei, UniProt Q38C91); type: functional, Trypanosoma brucei brucei strain 927/4 GUTat10.1
T3 sequence (Q38C91 whole entry): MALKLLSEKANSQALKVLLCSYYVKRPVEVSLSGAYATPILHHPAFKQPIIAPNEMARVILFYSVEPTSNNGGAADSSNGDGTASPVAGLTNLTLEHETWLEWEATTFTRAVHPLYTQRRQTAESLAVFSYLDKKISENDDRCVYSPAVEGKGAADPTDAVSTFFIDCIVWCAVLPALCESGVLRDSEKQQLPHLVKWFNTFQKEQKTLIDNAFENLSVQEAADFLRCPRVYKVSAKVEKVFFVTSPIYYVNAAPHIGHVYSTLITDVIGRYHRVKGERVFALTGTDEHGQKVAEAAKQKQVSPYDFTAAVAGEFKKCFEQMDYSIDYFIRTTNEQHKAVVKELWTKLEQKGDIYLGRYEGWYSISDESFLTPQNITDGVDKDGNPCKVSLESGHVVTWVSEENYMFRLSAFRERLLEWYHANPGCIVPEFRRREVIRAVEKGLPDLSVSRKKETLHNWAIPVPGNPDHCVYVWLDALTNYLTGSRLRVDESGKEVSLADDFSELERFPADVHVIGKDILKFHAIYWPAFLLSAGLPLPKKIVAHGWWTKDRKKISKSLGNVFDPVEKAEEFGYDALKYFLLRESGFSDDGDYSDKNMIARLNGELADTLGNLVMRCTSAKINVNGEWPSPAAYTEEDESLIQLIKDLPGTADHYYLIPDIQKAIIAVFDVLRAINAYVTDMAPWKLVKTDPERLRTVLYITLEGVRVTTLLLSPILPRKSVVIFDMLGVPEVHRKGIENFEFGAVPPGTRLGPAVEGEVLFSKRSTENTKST

[28] = Late stage counterscreen for inhibitors of Trypanosoma brucei methionyl tRNA synthetase (MetRS): Luminescence-based cell-based high throughput dose response assay to identify compounds that are cytotoxic to Jurkat human T lymphocyte cells.; type: functional
[29] = Counterscreen for inhibitors of Trypanosoma brucei methionyl tRNA synthetase (MetRS): Luminescence-based cell-based high throughput dose response assay to identify compounds that are cytotoxic to Jurkat human T lymphocyte cells.; type: functional
[30] = inhibition of trypanosomal methionyl-tRNA synthetase – biochemical, fluorescence polarization, dose response, orthogonal assay for T. brucei MetRS inhibitor project, late-stage follow-up (AID 686969)
[31] = target: T3, Methionyl-tRNA synthetase, putative; type: functional, Trypanosoma brucei brucei strain 927/4 GUTat10.1; remark: listed apart in the source

T2 sequence (P02675 whole entry, the tested form may be a part): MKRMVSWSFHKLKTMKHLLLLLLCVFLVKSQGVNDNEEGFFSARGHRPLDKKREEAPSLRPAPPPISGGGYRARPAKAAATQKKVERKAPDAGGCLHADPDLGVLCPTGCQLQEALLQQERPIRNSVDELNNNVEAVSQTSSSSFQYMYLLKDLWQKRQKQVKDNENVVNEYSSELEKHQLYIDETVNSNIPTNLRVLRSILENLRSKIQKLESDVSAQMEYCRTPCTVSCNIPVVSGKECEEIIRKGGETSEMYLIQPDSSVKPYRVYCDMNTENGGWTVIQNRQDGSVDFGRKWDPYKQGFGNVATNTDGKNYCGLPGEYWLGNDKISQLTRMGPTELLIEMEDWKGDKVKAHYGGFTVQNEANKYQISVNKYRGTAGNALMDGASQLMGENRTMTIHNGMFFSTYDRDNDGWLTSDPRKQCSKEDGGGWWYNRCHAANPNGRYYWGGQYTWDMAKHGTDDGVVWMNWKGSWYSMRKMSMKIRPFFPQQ
Chain of Paired box protein Pax-8 (Q06710 whole entry): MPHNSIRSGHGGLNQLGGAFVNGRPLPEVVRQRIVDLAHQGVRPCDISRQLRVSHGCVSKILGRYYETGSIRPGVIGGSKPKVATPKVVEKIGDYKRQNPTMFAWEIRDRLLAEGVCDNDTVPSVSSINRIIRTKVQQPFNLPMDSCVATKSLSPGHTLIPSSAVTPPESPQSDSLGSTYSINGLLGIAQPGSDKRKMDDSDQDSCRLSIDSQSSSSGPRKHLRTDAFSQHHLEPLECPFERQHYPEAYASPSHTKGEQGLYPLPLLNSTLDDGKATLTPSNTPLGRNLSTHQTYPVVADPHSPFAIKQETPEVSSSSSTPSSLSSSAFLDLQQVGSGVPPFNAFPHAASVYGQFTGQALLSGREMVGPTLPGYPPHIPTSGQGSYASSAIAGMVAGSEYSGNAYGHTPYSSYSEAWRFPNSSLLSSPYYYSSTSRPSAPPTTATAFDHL

Structure (SMILES): Cc1nc(N2[C@H](CO)[C@H](c3ccccc3)[C@H]2CNCC2CCC2)sc1C
AC50 [1]: 1.8 µM (active) | AC50 [2]: 0.881 µM (active) | AC50 [3]: 29.3 µM (active) | AC50 [4]: 1.34 µM (active) | AC50 [5]: 1.47 µM (active) | AC50 [6]: > 100 µM (inactive)

Structure (SMILES): Cc1cccc(N(C)S(=O)(=O)c2ccc(-c3cnc(C4CC4)o3)cc2)c1
AC50 [7]: 13 µM (active) | AC50 [8]: 3.81 µM (active) | AC50 [9]: 0.562 µM (inconclusive) | AC50 [10]: 0.778 µM (active) | AC50 [11]: 76.2 µM (active) | EC50 [12]: < 0.12 µM (active) | AC50 [13]: 3.95 µM (active) | IC50 [14]: > 80 µM (inactive) | AC50 [15]: < 0.16 µM (active) | AC50 [16]: 33.9 µM (active) | AC50 [17]: 0.364 µM (active) | AC50 (Paired box protein Pax-8): 1.99 µM (active) | AC50 [18]: 0.823 µM (active) | IC50 [19]: > 67.5 µM (inactive) | IC50 (cells): > 67.5 µM (inactive) | AC50 [20]: 0.366 µM (active) | EC50 (BJ): 40.7 µM (active) | AC50 [21]: 1.19 µM (active) | AC50 [22]: 1.89 µM (active)

Structure (SMILES): CCn1nnc(CCc2ccc(N3CCCC3)cc2)n1
AC50 [23]: > 160 µM (inactive)

Structure (SMILES): c1ccc(CSc2nnc(-c3ccccc3)s2)cc1
AC50 [24]: 33.8 µM (active)

IC50 (Fibrinogen beta chain [25]): > 83.2 µM (inactive) | IC50 (Fibrinogen beta chain [26]): 9.24 µM (active)
Structure (SMILES): CCOC(=O)C1(C)C(=O)CC2c3nc4ccccc4cc3CN2C1=O (centres undefined)

Structure (SMILES): COc1ccc(CNC(=O)CSc2n[nH]c3c4cc(F)ccc4nc-3n2)cc1
IC50 [27]: 4.39 µM (active) | IC50 [28]: > 83.3 µM (inactive) | IC50 [29]: 83.3 µM (inactive) | IC50 [30]: > 1.54 µM (active) | IC50 [31]: 0.879 µM (active)
